{"source": "patent US5807827A", "about": "“Des-Tyr dynorphin analogues” (Des-Tyr Dynorphin Partnership, priority 1997, dated 1998)", "key": {"[1]": {"test_system": "macrophage-colony stimulating factor", "conditions": "mice treated with chronic morphine; cited from earlier work"}, "[2]": {"test_system": "hosts tolerant to narcotic analgesic", "conditions": "cited from earlier work"}, "[3]": {"test_system": "morphine tolerant (addicted) animals", "assay": "Naloxone-precipitated narcotic withdrawal (withdrawal jumping) in morphine pellet-implanted animals", "format": "in vivo, mice", "description": "Morphine tolerance was established by implanting morphine pellets, 75 mg base, subcutaneously by the method of Way et al., J. Pharmac. Exp. Ther., 167, pp. 1-8 (1969), incorporated herein by reference. The drug used was morphine sulfate (Mallinckrodt Chemical Works, St. Louis, Mo.). The ED50 values, their 95% confidence limits and significance of the potency ratio between two ED50. values were determined by the method of Litchfield and Wilcoxon, J. Pharmac. Exp. Ther., 96, 99-113 (1949), incorporated herein by reference.\nThe morphine tolerant (addicted) animals had pellets implanted for three days. The animals were then challenged with naloxone doses (while the morphine pellet remained in place). […] Table 1 summarizes the data for the control animals and for groups of animals treated with three different peptides. Each peptide was in a dose of 5 μmol/kg i.v. before administration of the naloxone.\nHowever, when any of the three peptides shown in Table 1 was administered five minutes before administration of the naloxone, then much more naloxone was needed to precipitate the animal into a state of narcotic withdrawal. This means that each of the three peptides shown in Table 1 caused the addicted animal to be not as dependent on morphine as it would be without such pretreatment.\nThe animals and test procedures used were analogous to those described in Example 1. […]"}, "[4]": {"test_system": "morphine tolerant (that is, addicted) mice", "assay": "Tail-flick antinociceptive activity of morphine in morphine tolerant animals", "format": "in vivo", "conditions": "control 2: addicted animals, no peptide", "description": "(§1) Analgesia was measured by the tail-flick method of D'Amour and Smith, J. Pharmac. Exp. Ther. , 72, pp. 74-79 (1941), incorporated herein by reference, as modified by Tulunay and Takemori, J. Pharmac. Exp. Ther., 190, pp. 395-400 (1974), incorporated herein by reference. For ED50 (e.g., effective does for 50% of the test group) determinations, the animals' responses were made quantal by establishing an endpoint which represented a significant increase in reaction time. The endpoint was an increase in reaction time of an individual animal of greater than 3 SD (e.g., standard deviation) of the control mean reaction time for all animals used in the assay. The usual control mean reaction time was 3.1±0.05 sec. Nonresponding animals were removed from the heat stimulus when reaction time exceeded 10 sec. to avoid tail damage.\n(§2) Drugs were injected 30 minutes prior to testing, unless otherwise indicated. Morphine was injected subcutaneously (s.c.) whereas the peptides were injected (i.v.) in […] saline.\n(§3) Morphine tolerance was established by implanting morphine pellets, 75 mg base, subcutaneously by the method of Way et al., J. Pharmac. Exp. Ther., 167, pp. 1-8 (1969), incorporated herein by reference. The drug used was morphine sulfate (Mallinckrodt Chemical Works, St. Louis, Mo.). […]"}, "[5]": {"test_system": "naive, unaddicted (that is, normal) animals", "assay": "Tail-flick antinociceptive activity of morphine in naive animals", "format": "in vivo, mice", "conditions": "control 1: naive, no peptide", "description": "as §1, §2, §3"}, "opioid receptor": {"test_system": "opioid receptor", "conditions": "cited from earlier work"}}, "note": "Ends that are not written are not given here."}
{"compound": "Tyr-Gly-Gly-Phe-Leu-Arg-Arg-Ile-Arg-Pro (YGGFLRRIRP-NH2) [SEQ ID NO:3]", "values": [{"measurement": "Block of opioid inhibition of macrophage-colony stimulating factor", "setting": "[1]", "result": "block the opioid inhibition of macrophage-colony stimulating factor of morphine in a dose-dependent manner"}]}
{"compound": "Tyr-Gly-Gly-Phe-Leu-Arg-Arg-Ile-Arg-Pro-Lys-Leu-Lys (YGGFLRRIRPKLK) [SEQ ID NO:2]", "values": [{"measurement": "Effect on analgesic effect of narcotic analgesic", "setting": "[2]", "result": "potentiates the analgesic effect in tolerant hosts"}, {"measurement": "Block of opioid inhibition of macrophage-colony stimulating factor", "setting": "[1]", "result": "block the opioid inhibition of macrophage-colony stimulating factor of morphine in a dose-dependent manner"}]}
{"compound": "GFLRRIRPKLK [Dyn (3-13), Gly-Phe-Leu-Arg-Arg-Ile-Arg-Pro-Lys-Leu-Lys]", "values": [{"measurement": "Observed behaviour of treated animals", "setting": "[3]; Example 3", "result": "lethargic and exhibited partial paralysis of their hind quarters"}]}
{"compound": "CN1CC[C@]23c4c5ccc(O)c4O[C@H]2[C@@H](O)C=C[C@H]3[C@H]1C5", "note": "[Morphine, morphine]", "values": [{"measurement": "Tolerance Index", "setting": "[4]; relative to naive control", "result": "8.5 (5.7-12.--)"}, {"measurement": "Morphine ED50", "setting": "[4]; tail flick", "result": "55.6 (42.6-73.5) μmol/kg s.c."}, {"measurement": "Morphine ED50", "setting": "[5]", "result": "6.5 (5.0-8.9) μmol/kg s.c."}]}
{"compound": "C=CCN1CC[C@]23c4c5ccc(O)c4O[C@H]2C(=O)CC[C@@]3(O)[C@H]1C5", "note": "[Naloxone, naloxone]", "values": [{"measurement": "ED50", "setting": "[3]; Mus musculus, control addicted animals, no peptide (base line)", "result": 79, "unit": "µmol/kg"}]}
{"compound": "Gly-Gly-Phe-Leu-Arg-Arg-Ile-Arg-Pro-Lys-Leu-Lys [des-Tyr Dyn A (1-13)]", "values": [{"measurement": "Competition in assays with various ligands", "setting": "opioid receptor", "result": "did not compete at all"}]}
